From publication PMC8545574, “Antioxidant, Anti-Inflammatory, and Antidiabetic Activities of Bioactive Compounds from the Fruits of Livistona chinensis Based on Network Pharmacology Prediction” (Oxidative Medicine and Cellular Longevity, 2021) come the findings set out here.

The nature of experiment [1]: DPPH free radical scavenging assay. In kind it is biochemical. Conditions: mean ± SD, n = 3. The protocol: The DPPH free radical scavenging assay was performed according to a previously reported method. A series of different concentrations of the tested samples and the positive control ascorbic acid were mixed with freshly prepared DPPH (0.2 mM) in a 96-well microplate with a total volume of 150 μL. After leaving the mixture to react in the dark for 30 min, its absorbance was determined at 517 nm. All of the wells with only samples were set as blanks to obtain an absorbance value, which was subtracted from the test sample readings. The percentage inhibition (%) for each sample was calculated by the following formula: (1) Inhibition %=Absblank−Abssamples/Absblank×100%, where Absblank and Abssamples correspond to the absorbance units (at 517 nm) of DPPH solutions incubated in the absence and presence of the tested samples.
For orientation: DPPH is a stable violet radical that fades when it is reduced.

Experiment [2] is described as follows: ABTS radical cation scavenging assay. In kind it is biochemical. The settings on record: mean ± SD, n = 3. The protocol: The ABTS radical cation (ABTS·+) was prepared by reacting ABTS with potassium persulfate following the method previously described. The ABTS radical cation (ABTS·+) was prepared by mixing with 2.45 mM potassium persulfate and equal volumes of an ABTS solution (7 mM), and then, they were permitted to react in the darkness at room temperature for 12–16 h. Thereafter, the ABTS reagent was diluted with methyl alcohol until reaching an absorbance of 0.70 ± 0.02 units at 734 nm. In a 96-well microplate, ABTS reagent (190 μL in each well) and samples (10 μL in each well) were incubated at room temperature for 20 min. To determine the antioxidant capacity by the ABTS method, the experimental conditions and protocol were identical to those of the DPPH assay. The only difference was that the absorbance was measured at 734 nm.

Experiment [3] has as its system insulin-resistant HepG2 cells. The experiment can be described thus: Glucose consumption by insulin-resistant HepG2 cells. In kind it is cell-based, human. The settings on record: for increase of glucose consumption: insulin resistance model of HepG2 cells, compounds at the dose of 50 μM, 24 h; for effect on glucose uptake (in words): insulin-resistant HepG2 cells. The protocol:
HepG2 cells were cultivated in DMEM (without phenol red) containing 10% fetal bovine serum at 37°C in a humidified 5% CO2 atmosphere. An insulin-resistant cell model was established in accordance with a previous method, with some modifications. Cells were seeded in a 96-well plate with 1 × 10^4 cells per well. After incubation for 24 h, the medium was replaced with serum-free medium (without phenol red) containing 5 × 10^−6 mol/L insulin and incubated for 24 h. The cell culture medium was then replaced with the samples at different concentrations. The compounds were first dissolved in DMSO and subsequently diluted with medium containing 1% FBS to achieve different concentrations. The final concentration of DMSO was no more than 0.1%. At the end of the 24 h incubation, glucose in the medium was measured using the glucose oxidase-peroxidase method kit (Nanjing Jiancheng Biological Co., Ltd.). The amount of glucose consumption was calculated as follows: (glucose of the DMEM − glucose concentration of each well).

In experiment [4] the target is T1, PTP1B (Homo sapiens, UniProt P18031).
T1 sequence (P18031 1-321 limits assumed): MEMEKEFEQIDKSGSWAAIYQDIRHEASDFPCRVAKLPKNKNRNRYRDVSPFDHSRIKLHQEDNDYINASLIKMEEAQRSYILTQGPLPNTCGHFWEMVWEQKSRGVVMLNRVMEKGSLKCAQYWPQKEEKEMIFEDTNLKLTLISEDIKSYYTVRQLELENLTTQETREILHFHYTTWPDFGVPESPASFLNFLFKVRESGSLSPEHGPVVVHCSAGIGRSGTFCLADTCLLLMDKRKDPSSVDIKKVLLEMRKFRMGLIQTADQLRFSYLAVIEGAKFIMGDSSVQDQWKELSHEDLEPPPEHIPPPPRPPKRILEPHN
The experiment can be described thus: PTP1B inhibitory assay (p-NPP substrate).
Method: PTP1B (10 μg/mL stock solution) was dissolved in 10 mM citrate buffer (pH 6.0), 1 mM dithiothreitol (DTT), and 1 mM N, N, N′, N′-ethylenediaminetetraacetate (EDTA). 20.0 μL PTP1B stock solution and 60 μL citrate buffer were added to each well of a 96-well plastic plate.

In experiment [5] the target is α-Glucosidase (from Baker's yeast). Briefly: α-Glucosidase inhibitory assay (p-NPG substrate). Conditions: read-out: IC50 α-Glucosidase inhibitory effect; mean ± SD, n = 3.
Method: The extract, fractions, and compounds were dissolved in 5% DMSO and then diluted with phosphate buffer. Briefly, 80 μL PBS, 20 μL of varying concentrations of sample solutions, and 20 μL α-glucosidase solution (1.3 U/mL) were mixed and incubated in 96-well plates at 37°C for 5 min. The reaction started when 20 μL p-nitrophenyl-α-D-glucopyranoside (2.5 mM) was added to the plate. The reaction mixture was incubated for 15 min at 37°C, and then, 80 μL Na2CO3 (0.2 M) was added to stop the reaction.
Experiment [6] concerns the target T1, PTP1B. Briefly: PTP1B enzyme inhibition kinetic study (Lineweaver-Burk and Dixon plots). In kind it is biochemical. Details: purchased Abcam (Shanghai) Trading Co., Ltd. ab51277. The settings on record: for Ki: determined by Dixon plots; for Inhibitory mode: determined by Lineweaver-Burk plots. How it is done: Lineweaver−Burk double reciprocal plot and Dixon plot were used to study the kinetic behavior of active compounds against PTP1B and the corresponding inhibition constants (Ki values). […] The plate reader recorded the absorbance of the reaction mixture every 3 mins. The enzymatic velocity of the enzyme reaction was calculated based on the time − Δabs plot. The Lineweaver−Burk plot and Dixon plot were generated by GraphPad Prism 8 in order to determine the type of PTP1B inhibition and Ki.

Experiment [7] deals with T1, PTP1B. Briefly: Fluorescence quenching measurement of PTP1B. Set-up: purchased Abcam (Shanghai) Trading Co., Ltd. ab51277. In kind it is binding. The settings on record: for Kd: read-out: K A (binding constant) (converted). How it is done: 180 μL of the buffer with 10 μL of the PTP1B at the concentration used in the assays were added into the 96-well black plates followed by 10 μL different concentrations (0, 6.25, 9.37, 12.5, 18.75, 25, and 50 μM) of inhibitor. The excitation wavelength was set at 250 nm, and the fluorescence emission spectra were collected from 300-400 nm with an emission bandwidth of 2 nm. The quenching parameters such as the Stern-Volmer constant (KSV), binding constant (KA), and the number of binding sites (n) were determined by the formula [33]. (4) F0/F=1+KSVQf,logFo−F/F=logKA+nlogQf, where F0 and F are the fluorescence intensities in the absence and presence of a quencher and [Q]f is a concentration of compounds.

In experiment [8] the test system is LPS-stimulated NO release in RAW 264.7 cells. The experiment can be described thus: Nitrite (Griess) assay of LPS-stimulated NO release. In kind it is cell-based. The settings on record: Mus musculus, RAW264.7, LPS (1 μg/mL)-stimulated RAW 264.7 cells; mean ± SD, n = 3; read-out: IC50 NO production anti-inflammatory effect. How it is done: The level of NO production was tested by measuring the nitrite level in the culture medium with the Griess method. Cells were seeded at a density of 2 × 10^4 cells per well in 96-well plates. […] A microplate reader was employed for the optical density measurement at 570 nm.
A general note: Nitrite, measured by Griess reagent, commonly stands in for NO production.

What is called IC50 is the concentration that gives 50% inhibition. For orientation: Ki means the dissociation constant of the complex between target and ligand, obtained from inhibition or displacement. `COC1(C)CC2c3c(cc(O)cc3O1)OC(c1ccc(O)c(O)c1)C2O` (stereo not shown) [Compound 1, Livischinol]: in experiment [1], the IC50 is 46.8 ± 1.53 µM. For the same molecule, the half-inhibitory concentration (IC50) in experiment [2] came out at 34.91 ± 0.07 µM. Besides, in experiment [3], the “increase of glucose consumption” value was found to be 48.9% and the “effect on glucose uptake (in words)” value is “stimulated glucose uptake”. The midpoint of inhibition at PTP1B [4], the IC50, lay at 9.41 ± 0.08 µM. Moreover, the half-inhibitory concentration (IC50) in experiment [5] turned out to be 37.3 ± 0.74 µM. Further, at PTP1B [6], the Ki came out at 1.49 µM and the Inhibitory mode result is “Competitive”. In addition, at PTP1B [7], the “K SV (Stern-Volmer constant)” value was determined as 37000 L/mol, the “n (number of binding sites)” value is 1.08 and the Kd is 10.5 µM.

Turning to `COc1cc(C2Oc3c(OC)cc(CCCOC4OC(CO)C(O)C(O)C4O)cc3C2CO)ccc1O` [Compound 17, (7S,8R)-dihydrodehydrodiconiferyl alcohol-9′-O-β-D-glucoside], the IC50 in experiment [1] was > 100 µM; in experiment [2], 33.49 ± 0.31 µM; in experiment [8], 17.3 ± 0.6 µM; at PTP1B [4], > 100 µM; in experiment [5], > 100 µM.

As to `COc1cc([C@H](O)[C@H](CO)Oc2ccc(CCCO)cc2OC)ccc1O` [Compound 19, threo-(7S,8S)-guaiacyl-glycerol-β-O-4′-dihydroconiferyl ether], the concentration for half-maximal inhibition (IC50) was > 100 µM in experiment [1]; 54.67 ± 0.34 µM in experiment [2]; 43.6 ± 0.9 µM in experiment [8]; 95.63 ± 0.47 µM on PTP1B [4]; 58.37 ± 0.44 µM in experiment [5].

Turning to `COc1cc([C@@H](O)[C@H](CO)Oc2ccc(CCCO)cc2OC)ccc1O` [Compound 20, erythro-(7R,8S)-guaiacyl-glycerol-β-O-4′-dihydroconiferyl ether], the IC50 in experiment [1] was > 100 µM; in experiment [2] it was 60.92 ± 0.46 µM; in experiment [8], 53.16 ± 0.24 µM; on PTP1B [4], 93.6 ± 1.07 µM; in experiment [5], 52.6 ± 1.33 µM.

In the case of `COc1cc(CCCO)ccc1O[C@@H](CO)[C@H](O)c1cc(OC)c(O)c(OC)c1` [Compound 21], the half-maximal inhibitory concentration (IC50) in experiment [1] is > 100 µM; in experiment [2], 93 ± 0.54 µM; in experiment [8], 55.54 ± 0.41 µM; against PTP1B [4] it was 67 ± 1.2 µM; in experiment [5], 61.8 ± 0.76 µM.

On to `COc1cc([C@@H](O)[C@H](CO)Oc2ccc(CCCO[C@@H]3O[C@H](CO)[C@@H](O)[C@H](O)[C@H]3O)cc2OC)ccc1O` [Compound 22, erythro-(7R,8S)-4,7,9,9′-tetrahydroxy-3,3′-dimethoxy-8-O-4′-neolignan-9′-O-β-D-glucopyranoside], for which the IC50 was > 100 µM in experiment [1]; 26.97 ± 0.21 µM in experiment [2]; 83.16 ± 0.24 µM in experiment [8]; 92.39 ± 0.71 µM at PTP1B [4]; 73.1 ± 2.33 µM in experiment [5].

Turning to `COc1cc([C@H](O)[C@H](CO)Oc2ccc(CCCO[C@@H]3O[C@H](CO)[C@@H](O)[C@H](O)[C@H]3O)cc2OC)ccc1O` [Compound 23, threo-(7R,8R)-4,7,9,9′-tetrahydroxy-3,3′-dimethoxy-8-O-4′-neolignan-9′-O-β-D-glucopyranoside], the IC50 was > 100 µM in experiment [1]; 68.2 ± 0.76 µM in experiment [2]; 73.16 ± 0.34 µM in experiment [8]; 90.06 ± 0.47 µM against PTP1B [4]; 82.12 ± 0.56 µM in experiment [5].

`COc1cc([C@H]2OC[C@H]3[C@@H]2CO[C@@H]3c2cc(OC)c(O)c(OC)c2)ccc1O` [Compound 30, (+)-medioresinol]: the half-inhibitory concentration (IC50) in experiment [1] came out at 95.7 ± 2.44 µM; in experiment [2], 25.58 ± 0.12 µM; in experiment [8], 55.5 ± 1.85 µM; on PTP1B [4], 26.75 ± 0.21 µM; in experiment [5], 34.4 ± 0.5 µM.

`COc1cc([C@@H](O)[C@H](CO)Oc2ccc([C@@H]3OC[C@@H]4[C@H]3CO[C@H]4c3ccc(O)c(OC)c3)cc2OC)ccc1O` [Compound 32]: the IC50 in experiment [1] was determined as 96.4 ± 2.26 µM; in experiment [2], 40.63 ± 0.23 µM; in experiment [8], 46.2 ± 0.67 µM; on PTP1B [4] it was 81.93 ± 0.78 µM; in experiment [5], 5.71 ± 0.17 µM.

`COc1cc([C@@H](O)[C@H](CO)Oc2c(OC)cc([C@@H]3OC[C@@H]4[C@H]3CO[C@H]4c3cc(OC)c(O)c(OC)c3)cc2OC)ccc1O` [Compound 35, (7R,7′R,7^″R,8S,8′S,8^″S)-4′,4^″-dihydroxy-3,3′,3^″,5,5′-pentamethoxy-7,9′:7′,9-diepoxy-4,8^″-oxy-8,8′-sesquineolignan-7^″,9^″-diol]: the half-maximal inhibitory concentration (IC50) in experiment [1] was 65.9 ± 1.52 µM; in experiment [2], 31.18 ± 0.24 µM; in experiment [8] it was 26.2 ± 0.19 µM; against PTP1B [4], 63.16 ± 0.3 µM; in experiment [5] it was 19.7 ± 0.21 µM.

For the molecule `COc1cc([C@H]2OC[C@H]3[C@H]2CO[C@@H]3c2cc(OC)c(O[C@@H](CO)[C@@H](O)c3cc(OC)c(O)c(OC)c3)c(OC)c2)cc(OC)c1O` [Compound 36, (7S,7′S,7^″S,8R,8′R,8^″R)-4′,4^″-dihydroxy-3,3′,3^″,5,5′,5^″-hexamethoxy-7,9′:7′,9-diepoxy-4,8^″-oxy-8,8′-sesquineolignan-7^″,9^″-diol], the IC50 was 62.44 ± 0.42 µM in experiment [1]; 31.1 ± 0.44 µM in experiment [2]; 79.7 ± 1.17 µM in experiment [8]; 63.19 ± 0.33 µM at PTP1B [4]; 22.7 ± 1.07 µM in experiment [5].

On to `COc1cc(O)cc2c1C(=O)c1c(cc(C)c(C(=O)OCC(O)CO)c1O)C2=O` (stereo not shown) [Compound 44, variecolorquinones A], for which, in experiment [1], the IC50 was determined as 23.1 ± 0.27 µM. The molecule further yielded a half-maximal inhibitory concentration (IC50) in experiment [2] of 13 ± 0.27 µM. In experiment [3], the “increase of glucose consumption” value was found to be 42.8% and the “effect on glucose uptake (in words)” value is “stimulated glucose uptake”. For the same molecule, half-maximal inhibition against PTP1B [4] (IC50) was put at 15.8 ± 0.29 µM. For the same molecule, the IC50 in experiment [5] is 29.6 ± 0.4 µM. For the same molecule, at PTP1B [6], the affinity, expressed as Ki, was 2.8 µM and the Inhibitory mode result is recorded as “Competitive”. Also, at PTP1B [7], the “K SV (Stern-Volmer constant)” value is 23000 L/mol, the “n (number of binding sites)” value amounted to 0.97 and the Kd was 17.2 µM.

In the case of `CN(CCOc1ccc(CC2SC(=O)NC2=O)cc1)c1ccccn1` (stereo not shown) [rosiglitazone, reference compound], the “increase of glucose consumption” value in experiment [3] came to 46.7%.
